No end group written: not given here.
Assays:
[1] = molecular target: PIN1 protein (peptidyl-prolyl cis-trans isomerase NIMA-interacting 1) (Homo sapiens, UniProt Q13526); assay: photo-CIDNP enhanced NMR ligand-target binding, small molecules vs PIN1 protein; conditions: 100 μM ligand, 25 μM fluorescein, 50 μM PIN1 (ligand 3-4: 25 μM ligand, 15 μM fluorescein, 25 μM PIN1), 450 nm, 1 W, 2 s
PDZ protein domain [2] = assay: photo-CIDNP enhanced NMR ligand-target binding, peptides vs PDZ protein domain (sample A vs B); conditions: 100 μM peptide, 25 μM fluorescein, PDZ 100 μM, 450 nm, 1 W, 4 s, no spin lock
PDZ protein domain [3] = assay: photo-CIDNP NMR titration for dissociation constant of peptide ligand to PDZ protein domain; assay type: binding; conditions: 47 μM peptide, 25 μM fluorescein, series of PDZ concentrations and irradiation times, 450 nm, fit of equations (7) and (6)
K-Ras protein = K-Ras protein (Homo sapiens, UniProt P01116); assay: photo-CIDNP enhanced NMR ligand-target binding with spinlock, small molecules vs K-Ras protein; conditions: 500 μM ligand, 25 μM fluorescein, 100 μM K-Ras, 450 nm, 1 W, 2 s, spinlock 200 ms
PIN1 protein = PIN1 protein (Homo sapiens, UniProt Q13526); assay: prior knowledge / verification of PIN1 binding (Potter et al. 2010; verification); conditions: method of verification not stated
PIN1 protein, sequence (Q13526 whole entry, species assumed, the tested form may be a part): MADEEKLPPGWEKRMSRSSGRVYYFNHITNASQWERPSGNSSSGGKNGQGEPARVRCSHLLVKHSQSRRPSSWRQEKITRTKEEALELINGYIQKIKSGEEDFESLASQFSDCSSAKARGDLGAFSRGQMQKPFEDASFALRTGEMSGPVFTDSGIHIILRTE

PDZ protein domain [4] = assay: photo-CIDNP enhanced 1H NMR titration, 47 µM peptide against a series of PDZ domain concentrations, fit of equations (7) and (6)

PIN1 protein (peptidyl-prolyl cis-trans isomerase NIMA-interacting 1), sequence (Q13526 whole entry, species assumed, the tested form may be a part): as above

With `O=C1NCCCc2c1oc1ccc(O)cc21` [ligand 3-4, 4-hydroxy-8-oxa-11-azatricyclo[7.5.0.0^2,7]tetradeca-1 (9),2,4,6-tetraen-10-one] the “binding to the target PIN1 (signal modified in presence of target)” value (from here on “binding to the target PIN1”) [1] was “bound to the target PIN1”.

With WVSAV [Peptide 1] the “binding to the target PDZ (signal modified in presence of target)” value (PDZ protein domain [2]) was “binding to the target PDZ” and the Kd (PDZ protein domain [3]) was 7 µM.

In the case of `COc1ccc(C)cc1NC(=O)Nn1cnnc1` [ligand 4-3, N-(2-methoxy-5-methylphenyl)-N′-4H-1,2,4-triazol-4-ylurea], the “binding to the target K-Ras (signal modified in presence of target)” value (from here on “binding to the target K-Ras”) (K-Ras protein) is reported as “bound to the target K-Ras”.

`N[C@@H](Cc1c[nH]c2ccccc12)C(=O)O` [ligand 3-3, tryptophan] was tested, and the “verification of binding to PIN1” value (PIN1 protein) was “verified to not bind to PIN1” and the “binding to the target PIN1” value [1] was “did not bind”.

For “5 N-(Furan-2-ylmethyl)-1H-benzimidazol-2-amine)-imidazole-4-carboxylic acid [ligand 4-1]”, the “binding to the target K-Ras” value (K-Ras protein) was “bound to the target K-Ras”.

With `O=C(O)Cc1c[nH]c2ccccc12` [ligand 4-4, indoleacetic acid] the “binding to the target K-Ras” value (K-Ras protein) was “did not bind”.

With WVSAV-NH2 [Peptide 4] the “binding to the target PDZ (signal modified in presence of target)” value (PDZ protein domain [2]) was “did not bind”.

With `Cc1cccc(-c2nc(C(=O)O)c(C)[nH]2)c1` [ligand 3-1, 5-methyl-2-(3-methylphenyl)-imidazole-4-carboxylic acid] the “binding to the target PIN1” value [1] was “bound to the target PIN1”.

`Cc1ccc2[nH]cc(C(=O)O)c2c1` [ligand 3-2, 5-methyl-indole-3-carboxylic acid] was tested, and the “binding to the target PIN1” value [1] was “bound to the target PIN1”.

With WEQLT (Peptide 3) the “binding to the target PDZ (signal modified in presence of target)” value (PDZ protein domain [2]) was “did not bind”.

Work on WVSAV [Peptide 1 (WVSAV)] yielded a Kd (PDZ protein domain [4]) of 7 µM.
